#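 A five-concentration, 48-hour dose response in 96-well plates underlies each endpoint, interpolated linearly between surrounding concentrations. Abbreviation: GI50, concentration required for 50% inhibition of growth. TGI is the concentration that stops growth completely.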
# What was measured:
# Assay in all cases: NCI tumour cell line growth inhibition, 48 h
# A549 NSCLC = tested on: A549 NSCLC
# T-47D breast = tested on: T-47D breast
# PC-3 prostate = tested on: PC-3 prostate
# MALME-3M melanoma = tested on: MALME-3M melanoma
# U251 CNS = tested on: U251 CNS
# NCI-H460 lung = tested on: NCI-H460 lung
# 786-0 renal = tested on: 786-0 renal
# HS 578T breast = tested on: HS 578T breast
# MCF7 breast = tested on: MCF7 breast
# OVCAR-5 ovarian = tested on: OVCAR-5 ovarian
# HCC-2998 colon = tested on: HCC-2998 colon
# UO-31 renal = tested on: UO-31 renal
# HCT-15 colon = tested on: HCT-15 colon
# HL-60(TB) leukemia = tested on: HL-60(TB) leukemia
# NCI-H522 lung = tested on: NCI-H522 lung
# TK-10 renal = tested on: TK-10 renal
# HT29 colon = tested on: HT29 colon
# UACC-257 melanoma = tested on: UACC-257 melanoma
# NCI-H226 lung = tested on: NCI-H226 lung
# SW-620 colon = tested on: SW-620 colon
# M14 melanoma = tested on: M14 melanoma
# SNB-19 CNS = tested on: SNB-19 CNS
# SF-539 CNS = tested on: SF-539 CNS
# MDA-MB-231 breast = tested on: MDA-MB-231 breast
# BT-549 breast = tested on: BT-549 breast
# UACC-62 melanoma = tested on: UACC-62 melanoma
# A498 renal = tested on: A498 renal
# K-562 leukemia = tested on: K-562 leukemia
# OVCAR-8 ovarian = tested on: OVCAR-8 ovarian
# KM12 colon = tested on: KM12 colon
# ACHN renal = tested on: ACHN renal
# NCI-H23 lung = tested on: NCI-H23 lung
# EKVX NSCLC = tested on: EKVX NSCLC
# OVCAR-3 ovarian = tested on: OVCAR-3 ovarian
# RXF 393 renal = tested on: RXF 393 renal
# SK-MEL-5 melanoma = tested on: SK-MEL-5 melanoma
# HOP-92 NSCLC = tested on: HOP-92 NSCLC
# SK-MEL-2 melanoma = tested on: SK-MEL-2 melanoma
# SK-OV-3 ovarian = tested on: SK-OV-3 ovarian
# NCI/ADR-RES ovarian = tested on: NCI/ADR-RES ovarian
# IGROV1 ovarian = tested on: IGROV1 ovarian
# MOLT-4 leukemia = tested on: MOLT-4 leukemia
# SNB-75 CNS = tested on: SNB-75 CNS
# SN12C renal = tested on: SN12C renal
# HOP-62 NSCLC = tested on: HOP-62 NSCLC
# SF-268 CNS = tested on: SF-268 CNS
# CAKI-1 renal = tested on: CAKI-1 renal
# SK-MEL-28 melanoma = tested on: SK-MEL-28 melanoma
# OVCAR-4 ovarian = tested on: OVCAR-4 ovarian
# LOX IMVI melanoma = tested on: LOX IMVI melanoma
# CCRF-CEM leukemia = tested on: CCRF-CEM leukemia
# DU-145 prostate = tested on: DU-145 prostate
# MDA-MB-468 breast = tested on: MDA-MB-468 breast
# HCT-116 colon = tested on: HCT-116 colon
# SR leukemia = tested on: SR leukemia
# SF-295 CNS = tested on: SF-295 CNS
# COLO 205 colon = tested on: COLO 205 colon
# RPMI-8226 leukemia = tested on: RPMI-8226 leukemia
compound,measurement,setting,value
COc1ccc(CCC2NCCc3c(Br)c4c(c(OC)c32)OCO4)cc1 (stereo unspecified),GI50,A549 NSCLC,4.01 µM
same,TGI,A549 NSCLC,> 55.8 µM
same,GI50,T-47D breast,4.78 µM
same,TGI,T-47D breast,27.3 µM
same,GI50,PC-3 prostate,6.16 µM
same,TGI,PC-3 prostate,> 55.8 µM
same,GI50,MALME-3M melanoma,4.98 µM
same,TGI,MALME-3M melanoma,13.5 µM
same,GI50,U251 CNS,10.7 µM
same,TGI,U251 CNS,> 55.8 µM
same,GI50,NCI-H460 lung,2.77 µM
same,TGI,NCI-H460 lung,21.7 µM
same,GI50,786-0 renal,9.75 µM
same,TGI,786-0 renal,> 55.8 µM
same,GI50,HS 578T breast,6.63 µM
same,TGI,HS 578T breast,28.3 µM
same,GI50,MCF7 breast,7.13 µM
same,TGI,MCF7 breast,26.6 µM
same,GI50,OVCAR-5 ovarian,3.28 µM
same,TGI,OVCAR-5 ovarian,36.8 µM
same,GI50,HCC-2998 colon,6.82 µM
same,TGI,HCC-2998 colon,15.5 µM
same,GI50,UO-31 renal,7.85 µM
same,TGI,UO-31 renal,> 55.8 µM
same,GI50,HCT-15 colon,3.53 µM
same,TGI,HCT-15 colon,> 55.8 µM
same,GI50,HL-60(TB) leukemia,2.44 µM
same,TGI,HL-60(TB) leukemia,17.7 µM
same,GI50,NCI-H522 lung,1.72 µM
same,TGI,NCI-H522 lung,10.1 µM
same,GI50,TK-10 renal,11.8 µM
same,TGI,TK-10 renal,> 55.8 µM
same,GI50,HT29 colon,1.77 µM
same,TGI,HT29 colon,8.33 µM
same,GI50,UACC-257 melanoma,9.2 µM
same,TGI,UACC-257 melanoma,> 55.8 µM
same,GI50,NCI-H226 lung,6.71 µM
same,TGI,NCI-H226 lung,> 55.8 µM
same,GI50,SW-620 colon,1.76 µM
same,TGI,SW-620 colon,9.77 µM
same,GI50,M14 melanoma,2.05 µM
same,TGI,M14 melanoma,> 55.8 µM
same,GI50,SNB-19 CNS,11.1 µM
same,TGI,SNB-19 CNS,> 55.8 µM
same,GI50,SF-539 CNS,6 µM
same,TGI,SF-539 CNS,14.3 µM
same,GI50,MDA-MB-231 breast,2.08 µM
same,TGI,MDA-MB-231 breast,15.5 µM
same,GI50,BT-549 breast,7.45 µM
same,TGI,BT-549 breast,25.5 µM
same,GI50,UACC-62 melanoma,1.34 µM
same,TGI,UACC-62 melanoma,3.98 µM
same,GI50,A498 renal,29 µM
same,TGI,A498 renal,> 55.8 µM
same,GI50,K-562 leukemia,1.84 µM
same,TGI,K-562 leukemia,> 55.8 µM
same,GI50,OVCAR-8 ovarian,11.1 µM
same,TGI,OVCAR-8 ovarian,> 55.8 µM
same,GI50,KM12 colon,2.82 µM
same,TGI,KM12 colon,> 55.8 µM
same,GI50,ACHN renal,8.23 µM
same,TGI,ACHN renal,> 55.8 µM
same,GI50,NCI-H23 lung,6.79 µM
same,TGI,NCI-H23 lung,38.1 µM
same,GI50,EKVX NSCLC,11.5 µM
same,TGI,EKVX NSCLC,> 55.8 µM
same,GI50,OVCAR-3 ovarian,3.37 µM
same,TGI,OVCAR-3 ovarian,29.8 µM
same,GI50,RXF 393 renal,7.57 µM
same,TGI,RXF 393 renal,39.4 µM
same,GI50,SK-MEL-5 melanoma,3.64 µM
same,TGI,SK-MEL-5 melanoma,11.9 µM
same,GI50,HOP-92 NSCLC,2.69 µM
same,TGI,HOP-92 NSCLC,18.2 µM
same,GI50,SK-MEL-2 melanoma,2.99 µM
same,TGI,SK-MEL-2 melanoma,16.5 µM
same,GI50,SK-OV-3 ovarian,10.5 µM
same,TGI,SK-OV-3 ovarian,> 55.8 µM
same,GI50,NCI/ADR-RES ovarian,6.99 µM
same,TGI,NCI/ADR-RES ovarian,28.4 µM
same,GI50,IGROV1 ovarian,3.92 µM
same,TGI,IGROV1 ovarian,44.6 µM
same,GI50,MOLT-4 leukemia,4.46 µM
same,TGI,MOLT-4 leukemia,> 55.8 µM
same,GI50,SNB-75 CNS,7.93 µM
same,TGI,SNB-75 CNS,35.3 µM
same,GI50,SN12C renal,5.1 µM
same,TGI,SN12C renal,42.7 µM
same,GI50,HOP-62 NSCLC,2.68 µM
same,TGI,HOP-62 NSCLC,> 55.8 µM
same,GI50,SF-268 CNS,12.5 µM
same,TGI,SF-268 CNS,> 55.8 µM
same,GI50,CAKI-1 renal,3.08 µM
same,TGI,CAKI-1 renal,> 55.8 µM
same,GI50,SK-MEL-28 melanoma,2.5 µM
same,TGI,SK-MEL-28 melanoma,12.6 µM
same,GI50,OVCAR-4 ovarian,12.6 µM
same,TGI,OVCAR-4 ovarian,> 55.8 µM
same,GI50,LOX IMVI melanoma,6.31 µM
same,TGI,LOX IMVI melanoma,14.5 µM
same,GI50,CCRF-CEM leukemia,6.76 µM
same,TGI,CCRF-CEM leukemia,37.3 µM
same,GI50,DU-145 prostate,15.9 µM
same,TGI,DU-145 prostate,> 55.8 µM
same,GI50,MDA-MB-468 breast,4.45 µM
same,TGI,MDA-MB-468 breast,15.9 µM
same,GI50,HCT-116 colon,1.84 µM
same,TGI,HCT-116 colon,> 55.8 µM
same,GI50,SR leukemia,2.33 µM
same,TGI,SR leukemia,31.2 µM
same,GI50,SF-295 CNS,2.36 µM
same,TGI,SF-295 CNS,41.6 µM
same,GI50,COLO 205 colon,2.84 µM
same,TGI,COLO 205 colon,11.8 µM
same,GI50,RPMI-8226 leukemia,2.23 µM
same,TGI,RPMI-8226 leukemia,15.9 µM

# Reference: PubChem BioAssay (NCI)
